Legend:
[1] = system: BAF3 EGFR L858R-T790M PURO POOL; test: Cell proliferation (MTT), BAF3 EGFR L858R-T790M; type: cell-based; conditions: Ba/F3 EGFR
Description: (§1) We also assessed the antiproliferative activity of compounds of Formula (I) against BaF3 cells expressing the target EGFR mutations or control (i.e., cell lines expressing wildtype EGFR). Assays were conducted using MTT.

[2] = molecular target: BAF3 EGFR DEL T790M PURO POOL (Homo sapiens, UniProt P00533, DEL746-750/T790M, cells depend on it); test: Cell proliferation (MTT), BAF3 EGFR DEL T790M; type: cell-based
BAF3 EGFR DEL T790M PURO POOL, sequence (P00533 with tags, fused parts or gaps DEL746-750/T790M): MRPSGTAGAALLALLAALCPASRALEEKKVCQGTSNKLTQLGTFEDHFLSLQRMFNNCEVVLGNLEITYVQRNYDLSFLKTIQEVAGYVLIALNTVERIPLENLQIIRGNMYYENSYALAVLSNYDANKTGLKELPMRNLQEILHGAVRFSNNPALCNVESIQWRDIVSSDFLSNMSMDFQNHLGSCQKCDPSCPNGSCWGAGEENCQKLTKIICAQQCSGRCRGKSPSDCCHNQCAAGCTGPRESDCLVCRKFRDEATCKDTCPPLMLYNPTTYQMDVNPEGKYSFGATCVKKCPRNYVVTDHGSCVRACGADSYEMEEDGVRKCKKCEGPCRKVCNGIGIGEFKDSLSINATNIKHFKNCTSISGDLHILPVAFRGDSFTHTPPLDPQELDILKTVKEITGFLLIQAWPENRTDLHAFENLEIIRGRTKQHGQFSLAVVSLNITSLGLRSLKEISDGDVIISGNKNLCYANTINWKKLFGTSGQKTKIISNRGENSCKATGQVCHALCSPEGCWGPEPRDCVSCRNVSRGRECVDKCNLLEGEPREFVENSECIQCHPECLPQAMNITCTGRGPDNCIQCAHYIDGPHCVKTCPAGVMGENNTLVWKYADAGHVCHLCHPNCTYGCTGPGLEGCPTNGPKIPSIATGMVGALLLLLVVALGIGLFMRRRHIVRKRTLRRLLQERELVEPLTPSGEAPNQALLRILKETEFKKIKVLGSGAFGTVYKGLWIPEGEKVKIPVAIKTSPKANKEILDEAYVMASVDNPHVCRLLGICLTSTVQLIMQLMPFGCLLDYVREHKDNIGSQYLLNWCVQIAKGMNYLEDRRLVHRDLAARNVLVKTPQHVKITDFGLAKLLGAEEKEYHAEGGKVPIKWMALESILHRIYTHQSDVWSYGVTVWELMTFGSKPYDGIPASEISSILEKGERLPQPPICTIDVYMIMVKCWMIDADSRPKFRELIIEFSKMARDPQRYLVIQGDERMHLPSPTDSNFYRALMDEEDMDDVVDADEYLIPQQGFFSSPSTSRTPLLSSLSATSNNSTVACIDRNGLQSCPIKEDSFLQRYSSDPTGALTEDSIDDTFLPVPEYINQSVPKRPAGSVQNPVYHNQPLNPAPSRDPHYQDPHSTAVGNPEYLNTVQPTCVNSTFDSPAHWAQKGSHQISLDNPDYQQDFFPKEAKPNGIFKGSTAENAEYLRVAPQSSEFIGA
Description: as §1

[3] = molecular target: EGFR bearing the L858R/T790M double mutation (Homo sapiens, UniProt P00533, L858R/T790M); test: Kinase inhibition, EGFR L858R/T790M; type: biochemical; conditions: 10 μM ATP; 10 pt curves, 3 μM top concentration (singlicates)
EGFR bearing the L858R/T790M double mutation, sequence (P00533 25-1210 T790M/L858R): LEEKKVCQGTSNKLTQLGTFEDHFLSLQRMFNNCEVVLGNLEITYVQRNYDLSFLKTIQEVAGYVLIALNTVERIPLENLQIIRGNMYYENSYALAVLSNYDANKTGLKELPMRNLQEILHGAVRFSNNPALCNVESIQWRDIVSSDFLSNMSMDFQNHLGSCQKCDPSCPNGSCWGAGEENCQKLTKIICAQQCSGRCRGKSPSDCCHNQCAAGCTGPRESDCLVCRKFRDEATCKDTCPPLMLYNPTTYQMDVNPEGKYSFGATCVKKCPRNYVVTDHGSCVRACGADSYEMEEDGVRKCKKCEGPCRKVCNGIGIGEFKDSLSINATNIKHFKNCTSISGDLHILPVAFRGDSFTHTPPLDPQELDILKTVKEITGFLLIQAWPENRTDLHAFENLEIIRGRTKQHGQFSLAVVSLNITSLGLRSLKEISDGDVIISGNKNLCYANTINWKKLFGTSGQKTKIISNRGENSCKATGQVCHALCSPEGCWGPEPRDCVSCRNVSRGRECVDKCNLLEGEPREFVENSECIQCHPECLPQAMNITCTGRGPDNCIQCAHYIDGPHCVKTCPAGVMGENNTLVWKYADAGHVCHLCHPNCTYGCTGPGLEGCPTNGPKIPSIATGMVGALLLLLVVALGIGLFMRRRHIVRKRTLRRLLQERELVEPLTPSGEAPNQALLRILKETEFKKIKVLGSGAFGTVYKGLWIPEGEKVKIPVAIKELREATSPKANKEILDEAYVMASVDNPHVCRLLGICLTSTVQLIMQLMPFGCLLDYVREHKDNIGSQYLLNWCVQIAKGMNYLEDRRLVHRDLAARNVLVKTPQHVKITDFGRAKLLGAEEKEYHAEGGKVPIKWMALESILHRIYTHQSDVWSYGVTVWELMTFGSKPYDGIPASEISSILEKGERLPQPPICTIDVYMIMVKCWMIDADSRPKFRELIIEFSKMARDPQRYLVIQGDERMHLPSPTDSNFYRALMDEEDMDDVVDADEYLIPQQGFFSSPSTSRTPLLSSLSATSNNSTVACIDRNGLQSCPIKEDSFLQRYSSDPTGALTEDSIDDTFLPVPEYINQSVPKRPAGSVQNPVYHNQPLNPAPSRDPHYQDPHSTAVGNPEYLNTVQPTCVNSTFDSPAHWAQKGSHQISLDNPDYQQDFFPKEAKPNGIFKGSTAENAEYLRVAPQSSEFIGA
Description: (§2) Kinase inhibitory activity of the compounds was measured against human EGFR (native sequence) and against EGFR bearing the L858R mution and the L858R/T790M double mutation (EGFR, L858R, and L858R/T790M, respectively in Table 1). Additional assays can be conducted with EGFR deletion mutants such as delE746-A750 with or without the additional T790M mutation. Assay conditions included 10 pt curves with 3 μM top concentration (singlicates) and 10 μM ATP.

[4] = molecular target: human EGFR (native sequence) (Homo sapiens, UniProt P00533); test: Kinase inhibition, human EGFR (native sequence); type: biochemical; conditions: 10 μM ATP; 10 pt curves, 3 μM top concentration (singlicates)
human EGFR (native sequence), sequence (P00533 25-1210): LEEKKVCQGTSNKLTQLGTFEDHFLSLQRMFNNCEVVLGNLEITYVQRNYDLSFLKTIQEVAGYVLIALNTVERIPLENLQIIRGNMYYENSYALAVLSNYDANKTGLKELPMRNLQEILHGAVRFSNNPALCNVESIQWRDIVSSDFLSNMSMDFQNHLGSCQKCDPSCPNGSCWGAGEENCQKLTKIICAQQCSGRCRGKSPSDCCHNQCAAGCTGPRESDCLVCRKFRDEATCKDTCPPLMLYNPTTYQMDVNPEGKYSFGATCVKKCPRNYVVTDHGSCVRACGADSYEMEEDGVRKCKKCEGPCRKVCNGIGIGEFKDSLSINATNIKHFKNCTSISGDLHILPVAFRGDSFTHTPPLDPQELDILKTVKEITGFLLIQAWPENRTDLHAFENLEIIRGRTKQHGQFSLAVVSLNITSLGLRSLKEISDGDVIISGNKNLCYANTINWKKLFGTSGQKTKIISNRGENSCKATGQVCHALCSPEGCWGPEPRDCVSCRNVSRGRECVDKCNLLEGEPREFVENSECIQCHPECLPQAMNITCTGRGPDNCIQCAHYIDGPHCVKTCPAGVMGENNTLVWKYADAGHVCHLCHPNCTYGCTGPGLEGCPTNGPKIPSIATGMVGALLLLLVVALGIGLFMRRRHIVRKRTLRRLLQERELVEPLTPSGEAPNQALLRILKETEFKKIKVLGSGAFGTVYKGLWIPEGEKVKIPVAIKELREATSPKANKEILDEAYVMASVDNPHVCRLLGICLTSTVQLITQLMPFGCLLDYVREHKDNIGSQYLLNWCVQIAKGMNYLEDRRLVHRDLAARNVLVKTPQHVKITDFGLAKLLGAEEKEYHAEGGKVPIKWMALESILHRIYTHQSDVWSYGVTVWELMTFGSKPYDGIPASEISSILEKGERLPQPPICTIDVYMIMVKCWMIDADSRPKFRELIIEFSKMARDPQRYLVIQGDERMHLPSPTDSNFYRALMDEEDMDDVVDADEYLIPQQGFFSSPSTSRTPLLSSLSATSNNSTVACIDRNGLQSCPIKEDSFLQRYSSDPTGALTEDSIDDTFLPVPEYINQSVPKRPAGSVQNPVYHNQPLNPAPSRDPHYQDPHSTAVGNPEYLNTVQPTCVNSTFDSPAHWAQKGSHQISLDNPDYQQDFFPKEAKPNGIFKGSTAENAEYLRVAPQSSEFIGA
Description: as §2

[5] = molecular target: EGFR bearing the L858R mution (Homo sapiens, UniProt P00533, L858R); test: Kinase inhibition, EGFR L858R; type: biochemical; conditions: 10 μM ATP; 10 pt curves, 3 μM top concentration (singlicates)
EGFR bearing the L858R mution, sequence (P00533 25-1210 L858R): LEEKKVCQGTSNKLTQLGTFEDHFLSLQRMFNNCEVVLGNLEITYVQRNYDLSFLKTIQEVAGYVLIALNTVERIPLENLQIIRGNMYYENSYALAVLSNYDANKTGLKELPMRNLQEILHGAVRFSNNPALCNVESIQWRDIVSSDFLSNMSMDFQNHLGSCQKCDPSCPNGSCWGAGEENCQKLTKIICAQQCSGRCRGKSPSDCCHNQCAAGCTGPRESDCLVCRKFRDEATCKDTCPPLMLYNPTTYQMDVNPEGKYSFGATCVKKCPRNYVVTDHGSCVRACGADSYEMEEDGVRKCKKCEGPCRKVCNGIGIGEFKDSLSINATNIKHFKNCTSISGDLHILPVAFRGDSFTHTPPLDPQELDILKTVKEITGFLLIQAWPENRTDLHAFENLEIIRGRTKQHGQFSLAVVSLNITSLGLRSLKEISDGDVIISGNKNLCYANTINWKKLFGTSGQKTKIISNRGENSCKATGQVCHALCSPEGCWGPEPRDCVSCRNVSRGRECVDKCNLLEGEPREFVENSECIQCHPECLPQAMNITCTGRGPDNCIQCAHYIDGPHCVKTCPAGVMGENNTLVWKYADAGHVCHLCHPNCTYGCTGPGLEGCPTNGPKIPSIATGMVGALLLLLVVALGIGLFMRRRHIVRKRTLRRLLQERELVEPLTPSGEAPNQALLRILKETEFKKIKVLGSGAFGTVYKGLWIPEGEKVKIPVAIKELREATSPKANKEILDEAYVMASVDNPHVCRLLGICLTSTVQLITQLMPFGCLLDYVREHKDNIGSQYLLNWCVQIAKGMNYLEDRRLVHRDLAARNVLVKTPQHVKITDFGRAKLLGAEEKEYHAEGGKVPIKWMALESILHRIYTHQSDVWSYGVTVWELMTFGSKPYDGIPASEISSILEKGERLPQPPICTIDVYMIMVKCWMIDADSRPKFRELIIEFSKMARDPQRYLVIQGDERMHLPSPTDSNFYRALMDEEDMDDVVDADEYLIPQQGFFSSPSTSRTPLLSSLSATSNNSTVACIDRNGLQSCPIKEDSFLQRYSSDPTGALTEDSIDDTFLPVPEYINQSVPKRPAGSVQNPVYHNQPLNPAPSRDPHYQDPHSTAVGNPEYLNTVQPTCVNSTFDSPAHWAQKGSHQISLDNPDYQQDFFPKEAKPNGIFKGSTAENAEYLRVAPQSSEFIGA
Description: as §2

BAF3 PARENTAL = test: Cell proliferation (MTT), BAF3 parental; type: cell-based; conditions: Mus musculus
Description: as §1

Structure (SMILES) | IC50 [1] | IC50 [2] | IC50 [3] | IC50 [4] | IC50 [5] | IC50 (BAF3 PARENTAL)
CC#CC(=O)Nc1ccc(OC)c(Nc2ncc(Cl)c(Nc3ccccc3P(C)(C)=O)n2)c1 [Example 6b, N-(3-((5-chloro-4-((2-(dimethylphosphoryl)phenyl)amino)pyrimidin-2-yl)amino)-4-methoxyphenyl)but-2-ynamide] | 51 to 100 nM | < 51 nM | ≥ 250 nM | ≥ 250 nM | 51 to 100 nM | ≥ 250 nM
C=CC(=O)Nc1cccc(Oc2nc(Nc3ccc(P(C)(C)=O)cc3OC)ncc2Cl)c1 [Example 9, N-(3-((5-chloro-2-((4-(dimethylphosphoryl)-2-methoxyphenyl)amino)pyrimidin-4-yl)oxy)phenyl)acrylamide] | 51 to 100 nM | 51 to 100 nM | < 51 nM | 101 to 250 nM | < 51 nM | ≥ 250 nM
C=CC(=O)Nc1ccc(OC)c(Nc2ncc(F)c(Nc3ccccc3P(C)(C)=O)n2)c1 [Example 11, N-(3-((4-((2-(dimethylphosphoryl)phenyl)amino)-5-fluoropyrimidin-2-yl)amino)-4-methoxyphenyl)acrylamide] | 101 to 250 nM | 51 to 100 nM | < 51 nM | 101 to 250 nM | < 51 nM | ≥ 250 nM
C=CC(=O)Nc1ccc(OC)c(Nc2nccc(Nc3ccccc3P(C)(C)=O)n2)c1 [Example 13, N-(3-((4-((2-(dimethylphosphoryl)phenyl)amino)pyrimidin-2-yl)amino)-4-methoxyphenyl)acrylamide] | ≥ 250 nM | 101 to 250 nM | < 51 nM | ≥ 250 nM | 51 to 100 nM | ≥ 250 nM

Now from value to molecule, other results behind:

IC50 [1] | IC50 [2] | IC50 [3] | IC50 [4] | IC50 [5] | Structure (SMILES) | IC50 (BAF3 PARENTAL)
< 51 nM | < 51 nM | < 51 nM | < 51 nM | < 51 nM | COc1ccc(NC(=O)C2(C)CO2)cc1Nc1ncc(Cl)c(Nc2ccccc2P(C)(C)=O)n1 (stereo not drawn) [Example 10, N-(3-((5-chloro-4-((2-(dimethylphosphoryl)phenyl)amino)pyrimidin-2-yl)amino)-4-methoxyphenyl)-2-methyloxirane-2-carboxamide] | ≥ 250 nM
< 51 nM | < 51 nM | < 51 nM | < 51 nM | < 51 nM | C=CC(=O)Nc1ccc(OC)c(Nc2ncc(Br)c(Nc3ccccc3P(C)(C)=O)n2)c1 [Example 12, N-(3-((5-bromo-4-((2-(dimethylphosphoryl)phenyl)amino)pyrimidin-2-yl)amino)-4-methoxyphenyl)acrylamide] | ≥ 250 nM
< 51 nM | < 51 nM | < 51 nM | 51 to 100 nM | < 51 nM | C=CC(=O)Nc1ccc(OC)c(Nc2ncc(Cl)c(Nc3cccc(C)c3P(C)(C)=O)n2)c1 [Example 14, N-(3-((5-chloro-4-((2-(dimethylphosphoryl)-3-methylphenyl)amino)pyrimidin-2-yl)amino)-4-methoxyphenyl)acrylamide] | ≥ 250 nM
< 51 nM | < 51 nM | < 51 nM | < 51 nM | < 51 nM | C=CC(=O)Nc1ccc(OC)c(Nc2ncc(Cl)c(Nc3ccccc3P(=O)(CC)CC)n2)c1 [Example 15, N-(3-((5-chloro-4-((2-(diethylphosphoryl)phenyl)amino)pyrimidin-2-yl)amino)-4-methoxyphenyl)acrylamide] | ≥ 250 nM
< 51 nM | < 51 nM | < 51 nM | < 51 nM | < 51 nM | C=C(CN(C)C)C(=O)Nc1ccc(OC)c(Nc2ncc(Cl)c(Nc3ccccc3P(C)(C)=O)n2)c1 [Example 17, N-(3-((5-chloro-4-((2-(dimethylphosphoryl)phenyl)amino)pyrimidin-2-yl)amino)-4-methoxyphenyl)-2-((dimethylamino)methyl)acrylamide] | ≥ 250 nM
